Assay [1] concerns the target T1, human B1R receptor (hB1R) (Homo sapiens, UniProt P46663).
T1 construct: expressed in transfected cells; host or cells: CHO K1 cells, stably transfected
T1 sequence (P46663 1-353): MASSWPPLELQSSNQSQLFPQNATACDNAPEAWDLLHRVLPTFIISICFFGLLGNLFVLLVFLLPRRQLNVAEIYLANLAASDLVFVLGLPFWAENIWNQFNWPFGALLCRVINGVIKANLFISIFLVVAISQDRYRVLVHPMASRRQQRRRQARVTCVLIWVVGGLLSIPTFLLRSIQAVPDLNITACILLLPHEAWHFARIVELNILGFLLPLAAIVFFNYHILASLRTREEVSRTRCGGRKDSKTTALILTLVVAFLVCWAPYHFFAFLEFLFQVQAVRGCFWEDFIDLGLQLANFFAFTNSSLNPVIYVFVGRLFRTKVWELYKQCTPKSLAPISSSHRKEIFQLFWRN
The experiment in a line: FLIPR Ca2+ functional study on bradykinin receptor 1, hB1R cells (CHO K1). The assay is classed as cell-based. The following applies: CHO K1 cells with human B1R, agonist Lys-Des-Arg9-bradykinin at EC80; for inhibition at 10 µM: CHO-K1, 10 μM test substance, read-out: B1R antagonism, human [10 μM] % inhibition. The gist of the method: (§1)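 Stably transfected CHO K1 cells loaded with Fluo-4; FLIPR Ca2+ fluorescence (ex 488/em 540 nm, peak counts). Compounds (10 μM, or concentration series for IC50) preincubated 10–20 min, then EC80 agonist added (human: Lys-Des-Arg9-bradykinin; rat: Des-Arg9-bradykinin); % inhibition versus maximum achievable, n=2–3, N≥2.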

In assay [2] the target is T2, B1R receptor of the rat (rB1R) (Rattus norvegicus, UniProt P97583).
T2 construct: expressed in transfected cells; host or cells: CHO K1 cells, stably transfected
T2 sequence (P97583 1-337): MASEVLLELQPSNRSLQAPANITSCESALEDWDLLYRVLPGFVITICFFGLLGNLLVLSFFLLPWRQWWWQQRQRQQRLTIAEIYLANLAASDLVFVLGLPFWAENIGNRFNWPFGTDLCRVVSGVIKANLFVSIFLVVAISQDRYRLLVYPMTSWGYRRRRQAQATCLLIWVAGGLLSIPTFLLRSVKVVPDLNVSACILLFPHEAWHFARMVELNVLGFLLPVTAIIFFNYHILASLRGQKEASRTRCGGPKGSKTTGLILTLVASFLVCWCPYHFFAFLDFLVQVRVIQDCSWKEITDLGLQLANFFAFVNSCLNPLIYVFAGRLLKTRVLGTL
Nature of the assay: FLIPR Ca2+ functional study on bradykinin receptor 1, rB1R cells (CHO K1). The assay is classed as cell-based. The following applies: 10 μM test substance, CHO K1 cells with rat B1R, agonist Des-Arg9-bradykinin at EC80; for inhibition at 10 µM: read-out: B1R antagonism, rat [10 μM] % inhibition. The gist of the method:
as §1

The term inhibition denotes the relative decrease from the control value, in per cent.

With `O=C(c1ccccc1Cl)N1CCc2onc(C(=O)N3CCC4(CC3)CCN(c3ccncc3)CC4)c2C1` [Compound G-13, (5-(2-Chlorobenzoyl)-4,5,6,7-tetrahydroisoxazolo[4,5-c]pyridin-3-yl)(9-(pyridin-4-yl)-3,9-diazaspiro[5.5]undecan-3-yl)methanone], the inhibition at 10 µM in assay [1] was 100%; in assay [2] it was 94%.

`O=C(c1ccc2c(c1)CN(C(=O)c1cc3c(s1)CCC3)CC2)N1CCC2(CC1)CCN(c1ccncc1)CC2` [Compound G-60, (5,6-Dihydro-4H-cyclopenta[b]thiophen-2-yl)(7-(9-(pyridin-4-yl)-3,9-diazaspiro[5.5]undecane-3-carbonyl)-3,4-dihydroisoquinolin-2(1H)-yl)methanone]: the inhibition at 10 µM in assay [1] was found to be 98%; in assay [2] it was 91%.

For the compound `COc1cc(C)c(S(=O)(=O)N2Cc3ccc(C(=O)N4CCC5(CC4)CCN(c4ccncc4)CC5)cc3C2)c(C)c1` [Compound G-67, [2-[(4-Methoxy-2,6-dimethyl-phenyl)sulfonyl]-2,3-dihydro-1H-isoindol-5-yl]-(9-pyridin-4-yl-3,9-diazaspiro[5.5]undecan-3-yl)-methanone], the inhibition at 10 µM in assay [1] is 100%; in assay [2], 101%.

With `COc1cc(C)c(S(=O)(=O)N2CCCc3ccc(CC(=O)N4CCC5(CC4)CCN(c4ccncc4)CC5)cc32)c(C)c1` [G_CC-055, 2-[1-[(4-Methoxy-2,6-dimethyl-phenyl)sulfonyl]-1,2,3,4-tetrahydro-quinolin-7-yl]-1-(3-pyridin-4-yl-3,9-diazaspiro[5.5]undecan-9-yl)-ethanone], in assay [1] (10 μM test substance, 10 µM), the “B1R antagonism, human [10 μM] % inhibition” value was found to be 96%. In addition, the “B1R antagonism, rat [10 μM] % inhibition” value in assay [2] is recorded as 98%.

Turning to `COc1cc(C)c(S(=O)(=O)N2CCn3cc(C(=O)N4CCC5(CC4)CCN(c4ccncc4)CC5)nc3C2)c(C)c1` [Compound G-40, (7-(4-Methoxy-2,6-dimethylphenylsulfonyl)-5,6,7,8-tetrahydroimidazo[1,2-a]pyrazin-2-yl)(9-(pyridin-4-yl)-3,9-diazaspiro[5.5]undecan-3-yl)methanone], the inhibition at 10 µM turned out to be 100% in assay [1] and 102% in assay [2].

`COc1cc(C)c(S(=O)(=O)N2CCOc3ccc(CC(=O)N4CCC5(CC4)CCN(c4ccncc4)CC5)cc32)c(C)c1` [Compound G-19, 2-(4-(4-Methoxy-2,6-dimethylphenylsulfonyl)-3,4-dihydro-2H-benzo[b][1,4]oxazin-6-yl)-1-(9-(pyridin-4-yl)-3,9-diazaspiro[5.5]undecan-3-yl)ethanone]: the inhibition at 10 µM in assay [1] and in assay [2] was 100% in each case.

As to `COc1cc(C)c(S(=O)(=O)N2CCc3cccc(C(=O)N4CCC5(CC4)CCN(c4ccncc4)CC5)c3C2)c(C)c1` [Compound G-36, (2-(4-Methoxy-2,6-dimethylphenylsulfonyl)-1,2,3,4-tetrahydroisoquinolin-8-yl)(9-(pyridin-4-yl)-3,9-diazaspiro[5.5]undecan-3-yl)methanone], the inhibition at 10 µM in assay [1] and in assay [2] was 99% throughout.

Regarding `O=C(Cc1ccc2c(c1)N(S(=O)(=O)c1cccc3ccccc13)CCC2)N1CCC2(CCN(c3ccncc3)C2)C1` (centres unmarked) [Compound G-53, 2-(1-(Naphthalin-1-ylsulfonyl)-1,2,3,4-tetrahydroquinolin-7-yl)-1-(7-(pyridin-4-yl)-2,7-diazaspiro[4.4]nonan-2-yl)ethanone], the figures for the inhibition at 10 µM in assay [1] and in assay [2] were 95% and 105%, respectively.

Consider `COc1cc(C)c(S(=O)(=O)N2CCn3cnc(C(=O)N4CCC5(CC4)CCN(c4ccncc4)CC5)c3C2)c(C)c1` [Compound G-72, [7-[(4-Methoxy-2,6-dimethyl-phenyl)sulfonyl]-5,6,7,8-tetrahydro-imidazo[1,5-a]pyrazin-1-yl]-(9-pyridin-4-yl-3,9-diazaspiro[5.5]undecan-3-yl)-methanone], for which the inhibition at 10 µM in assay [1] was 100%; in assay [2], 104%.

Regarding `O=C(c1ccc2c(c1)CN(S(=O)(=O)c1ccc(Cl)c3ccccc13)CC2)N1CCC2(CC1)CCN(c1ccncc1)CC2` [Compound G-50, (2-(4-Chloronaphthalin-1-ylsulfonyl)-1,2,3,4-tetrahydroisoquinolin-7-yl)(9-(pyridin-4-yl)-3,9-diazaspiro[5.5]undecan-3-yl)methanone], the results for the inhibition at 10 µM in assay [1] and in assay [2] were 69% and 91%, respectively.

Turning to `COc1cc(C)c(S(=O)(=O)N2CCc3sc(C(=O)N4CCC5(CC4)CCN(c4ccncc4)CC5)cc3C2)c(C)c1` [Compound G-14, (5-(4-Methoxy-2,6-dimethylphenylsulfonyl)-4,5,6,7-tetrahydrothieno[3,2-c]pyridin-2-yl)(9-(pyridin-4-yl)-3,9-diazaspiro[5.5]undecan-3-yl)methanone], the inhibition at 10 µM in assay [1] and in assay [2] was 97% throughout.

With `COc1cc(C)c(S(=O)(=O)N2CCCc3ccc(CC(=O)N4CCC5(CC4)CC(c4ccncc4)=NO5)cc32)c(C)c1` [Compound G-33, 2-(1-(4-Methoxy-2,6-dimethylphenylsulfonyl)-1,2,3,4-tetrahydroquinolin-7-yl)-1-(3-(pyridin-4-yl)-1-oxa-2,8-diazaspiro[4.5]dec-2-en-8-yl)ethanone], the inhibition at 10 µM is 65% in assay [1] and 73% in assay [2].

For `COc1cc(C)c(S(=O)(=O)N2CCc3ccc(CC(=O)N4CCC5(CC4)CCN(c4ccncc4)CC5)cc32)c(C)c1` [Compound G-20, 2-(1-(4-Methoxy-2,6-dimethylphenylsulfonyl)indolin-6-yl)-1-(9-(pyridin-4-yl)-3,9-diazaspiro[5.5]undecan-3-yl)ethanone], the inhibition at 10 µM in assay [1] is 100%; in assay [2] it was 102%.

The record behind these values is patent publication US8357717B2, “Spiro group-containing amide compounds having bradykinin 1 receptor (B1R) activity” (Gruenenthal GmbH, priority 2009, dated 2013).
